In one experiment the test system is caspase-3. Description: Western blot, caspase-3. The experiment is classed as cell-based, human. As to conditions: SKOV-3, 8 μg/mL, as early as 24 h. On the procedure: (§1) SKOV-3 cells were plated in a 75cm^2 culture flask and exposed to artonin E for 24, 48, and 72 h. Lysis buffer (50 mM Tris–HCl, pH 8.0; 120 mM NaCl, 0.5% NP-40; and 1 mM PMSF) was used to extract the total protein. Protein concentration was determined using a BCA protein assay reagent kit (Bio-Rad, USA). Equal amounts of protein (40 μg) extract were subjected to SDS-PAGE and electroblotted onto a polyvinylidenedifluoride membrane (Bio-Rad). Blots were then blocked with 5% non-fat milk in TBS-Tween buffer 7 (0.12 M Tris-base, 1.5 M NaCl, and 0.1% Tween 20) for 1 h at room temperature. After incubating with the appropriate primary antibody overnight at 4°C, the blots were washed and then incubated with horseradish peroxidase conjugated secondary antibody for 1 h at room temperature. The protein bands were detected using pico or femto chemiluminescence (ECL system) and visualized using a UV gel documentation system. The subsequent primary antibodies, which include those for β-actin (1:10,000), Bax (1:10,000), Bcl-2 (1:10,000), HSP-70 (1:10,000), survivin (1:10,000),caspase -3 (1:10,000), caspase -8 (1:10,000), caspase -9 (1;10,000) and cytochrome c (1:200) were purchased from Abcam, Cambridge, United Kingdom.
A general note: A western blot detects proteins with antibodies after separation by electrophoresis.

For another experiment, the system named is T1074 cells. Description: MTT cell viability assay, T1074. Type of experiment: cell-based, human. The conditions noted are these: Homo sapiens. On the procedure: (§2) Metastatic ovarian adenocarcinoma (SKOV-3) and normal Chinese hamster ovary (CHO) cell lines were originally obtained from the American Type Culture Collection (ATCC; Manassas, VA). SKOV-3 cells were cultured in McCoy’s 5A medium and CHO cells were cultured in F12K medium. A human periodontal ligament fibroblast cell line was purchased from Lonza, USA and maintained in stroma cell basal medium. T1074 (normal immortalized human ovarian surface epithelial cell line) was originally purchased from Applied Biological Materials (abm®) Canada and cultured in Prigrow 1 medium.
(§3) The inhibitory effects of artonin E and two positive controls paclitaxel and carboplatin were examined by MTT assay. Cells at a density of 5×10^3cells/well were placed in a 96-well plate and left for 24 h to attach. The attached cells were exposed to artonin E, paclitaxel, and carboplatin at different concentrations and incubated for 24, 48, and 72 h. Subsequently, 20 μL of 5 mg/mL MTT solution was added after drug treatment and the resulting mixture was incubated for 4 h to form purple formazan. Afterward, 100 μL of dimethyl sulfoxide (DMSO) was transferred into each well to dissolve the purple formazan, and results were measured using a microplate reader (Tecan Infinite M 200 PRO, Männedorf, Switzerland) at an absorbance of 570 nm. The half-maximal concentrations that caused cell growth inhibition (IC50 values) were obtained from the MTT viability growth curve.
On the technique in general: Tetrazolium assays rely on reduction of a dye to a coloured formazan, in cell work by metabolically active cells.

In the next experiment the test system is Bcl-2. Description: Western blot, Bcl-2. Type of experiment: cell-based, human. The conditions noted are these: SKOV-3, 8 μg/mL. On the procedure: as §1
The next experiment has as its system H460 cells. On the set-up: method as in PMID 23225436. The conditions noted are these: dose-dependent manner; cited from earlier work.
Experiment [1] relates to SKOV-3 cells. As to the kind of experiment: Intracellular ROS generation (DCFH-DA). As to conditions: SKOV-3, 8 μg/mL. Type of experiment: cell-based, human. On the procedure:
2′,7′-Dichlorofluorescin diacetate (DCFH-DA) was used to examine the production of intracellular reactive oxygen species in SKOV-3 cells treated with artonin E. The SKOV-3 cells were seeded in the 96-well black plate and incubated overnight to attach. The cells were then treated with 8 μg/mL of artonin E for 24, 48, and 72 h. Hank’s balanced salt solution without serum was used to wash the cells. Then, 100 μL of DCFH-DA solution was added to each designated well, and the plate was incubated at 37°C for 30 min. The results were analyzed using a fluorescence microplate reader (Tecan Infinite M 200 PRO, Männedorf, Switzerland) at 485 nm excitation and 520 nm emission.

Another experiment concerns Bax. As to the kind of experiment: Western blot, Bax. Type of experiment: cell-based, human. As to conditions: SKOV-3, 8 μg/mL, time-dependent. On the procedure:
as §1

Details of experiment [2]: method as in PMID 17855020. As to conditions: cited from earlier work.
A further experiment deals with survivin. As to the kind of experiment: Western blot, survivin. The experiment is classed as cell-based, human. As to conditions: SKOV-3, 8 μg/mL, 72 h after treatment. On the procedure: as §1
The next experiment has as its system caspase-8. As to the kind of experiment: Colorimetric caspase-8 activation assay. Type of experiment: cell-based, human. As to conditions: SKOV-3, 8 μg/mL, 48 and 72 h treatment. On the procedure: Calorimetric assay of the activation of caspases-3, -8, and -9 was conducted using R & D system kit, USA. Briefly, in a T75cm^2 flask 90% confluent SKOV-3 cells were induced with artonin E for 24, 48, and 72 h. The induced cells were trypsinized and centrifuged at 1,800 rpm for 10 min. The fresh pellets were washed with cold PBS and immediately lysed with protein lysis buffer. The cell lysate was then kept on ice for 10 min, centrifuged at 10,000 g for 15 min, and transferred into a new tube. The fresh cell lysate (50 μL), which contained 100–200 μg of protein, was added into a 96-well plate in triplicate. Fifty microliters of reaction buffer and 5 μL of caspase were then transferred into each designated well before incubating the plate in a CO2 incubator at 37°C for 2 h. A microplate reader (Tecan Infinite M 200 PRO, Männedorf, Switzerland) was used for analysis at a wavelength of 405 nm.

Experiment [3] has as its system SKOV-3 cells. As to the kind of experiment: MTT cell viability assay, SKOV-3. The experiment is classed as cell-based, human. The conditions noted are these: SKOV-3, MTT; for IC50: Homo sapiens. On the procedure:
as §2, §3

For another experiment, the system named is cytochrome c. Description: Cytochrome c releasing apoptosis assay (Western blot of fractions). Type of experiment: cell-based, human. On the procedure: Cytochrome c releasing apoptosis assay kit (ab65311) was purchased from abcam® (Cambridge, UK). The assay was conducted according to the manufacturer’s instruction. Briefly, SKOV-3 cells were induced with artonin E at different time points. The induced and un-induced cells were collected and centrifuged at […] for 5 minutes at 4°C. The cells were washed twice with 10 mL of ice-cold PBS, centrifuged and collected the pellet. The fresh pellets were then re-suspended with 1.0 mL of 1X cytosol extraction buffer mix containing DTT and Protease Inhibitor and incubated on ice for 10 minutes. Cells were then Dounce-homogenized before centrifuging at 7,000×g for 10 min at 4°C. The supernatant were collected and saved as cytosolic fractions. The remaining pellets were resuspended in 0.1 mL mitochondrial extraction buffer, vortexed for 10 seconds and saved as mitochondrial fractions. Both cytosolic and mitochondrial fractions were applied for protein analysis and proceeded with standard Western blot procedure.
SKOV-3 cells were plated in a 75cm^2 culture flask and exposed to artonin E for 24, 48, and 72 h. […] Protein concentration was determined using a BCA protein assay reagent kit (Bio-Rad, USA). […] The protein bands were detected using pico or femto chemiluminescence (ECL system) and visualized using a UV gel documentation system. […]

Values after ≈ are worked out from the molar mass of the structure shown.

The values that follow come from publication PMC4809498, “Artonin E Induces Apoptosis via Mitochondrial Dysregulation in SKOV-3 Ovarian Cancer Cells” (PLoS ONE, 2016).

A word on the IC50: it is the concentration needed to halve the response being measured. As to `CC(C)=CCc1c(-c2cc(O)c(O)cc2O)oc2c3c(cc(O)c2c1=O)OC(C)(C)C=C3` [Artonin E, artonin E], the “protein expression level of caspase-3” value in the experiment on caspase-3 is recorded as “significantly (p<0.05) up-regulated”. For the same compound, the IC50 worked out at 44.8 ± 0.76 µg/mL (≈ 103 µM) in the experiment on T1074 cells (24 h treatment); 37.5 ± 0.53 µg/mL (≈ 85.9 µM) with T1074 cells (48 h treatment); 32.5 ± 0.5 µg/mL (≈ 74.5 µM) in the experiment with T1074 cells (72 h treatment); 12.8 ± 0.28 µg/mL (≈ 29.4 µM) in the experiment on SKOV-3 cells [3] (SK-OV-3, 24 h, 24 h treatment); 8 µg/mL (≈ 18.3 µM) with SKOV-3 cells [3] (SK-OV-3, 48 h, 48 h treatment); 6.5 ± 0.5 µg/mL (≈ 14.9 µM) with SKOV-3 cells [3] (SK-OV-3, 72 h, 72 h treatment). In addition, the Bcl-2 level result in the experiment on Bcl-2 (24 h post treatment) was “significantly lower”; in the experiment on Bcl-2 (after 48 h and 72 h), “almost diminished”. The “anoikis (detachment-induced apoptosis) of H460 cells” value in the experiment with H460 cells is “enhances anoikis”. In the experiment on SKOV-3 cells [1] (24 and 48 h after treatment), the “increase in the formation of ROS compared with untreated cells” value is on record as “twofold”. Moreover, the ROS induction entry in the experiment with SKOV-3 cells [1] (72 h after treatment) was “slightly decreased”. The “expression of Bax” value with Bax is given as “upregulates”. The “radical scavenging against the DPPH radical” value in experiment [2] is reported as “strong radical scavenging properties”. Also, in the experiment with survivin, the “level of survivin expression” value is listed as “reduced significantly”. The “activation of caspase-8” value with caspase-8 was “significantly (p<0.05)elevated”. For the same compound, the IC50 values in the experiment on SKOV-3 cells [3] (48 h treatment) is 8.8 ± 0.29 µg/mL (≈ 20.2 µM). Moreover, in the experiment on cytochrome c (SKOV-3, 8 μg/mL, 24, 48, 72 h), the “expression level of cytochrome c in cytosolic fraction” value is “increase”. Besides, the “expression level of cytochrome c in mitochondrial fraction” value with cytochrome c (SKOV-3, 8 μg/mL, time-dependent (24, 48, 72 h)) is listed as “significantly (p<0.05) decreased”.
